Reference: patent US20130109682A1, “CYCLIC ETHER COMPOUNDS USEFUL AS KINASE INHIBITORS” (NOVARTIS AG, priority 2010, published 2013)

How the values were obtained:
PIM1 = PIM1 (Homo sapiens, UniProt P11309); assay: KinaseGlo Pim1 ATP depletion assay; format: biochemical
Method in brief: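 IC50 is derived from residual ATP measured by KinaseGlo Plus luminescence once about half the ATP was consumed. Final conditions were 20 μM ATP, 40 μM BAD peptide and 2.5 nM kinase in HEPES pH 7.5 buffer with MgCl2, DTT and BSA, plus 2.5% DMSO. Compound and enzyme were premixed 15 min before ATP addition.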

PIM2 = PIM2 (Homo sapiens, UniProt Q9P1W9); assay: KinaseGlo Pim2 ATP depletion assay; format: biochemical
Chain of PIM2 (Q9P1W9 whole entry): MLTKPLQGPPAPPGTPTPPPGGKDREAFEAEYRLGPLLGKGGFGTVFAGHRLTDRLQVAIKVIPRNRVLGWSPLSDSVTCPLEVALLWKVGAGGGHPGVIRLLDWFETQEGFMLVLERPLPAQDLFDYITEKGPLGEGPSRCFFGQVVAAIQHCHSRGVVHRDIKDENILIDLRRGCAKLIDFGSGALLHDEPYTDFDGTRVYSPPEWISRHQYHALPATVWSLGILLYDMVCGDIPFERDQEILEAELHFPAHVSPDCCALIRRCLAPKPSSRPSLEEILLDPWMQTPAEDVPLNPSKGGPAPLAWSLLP
Method in brief: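 Compound sat 15 min with enzyme and BAD peptide before ATP was added; final levels 5 nM PIM2, 10 μM peptide, 4 μM ATP, 2.5% DMSO, pH 7.5 HEPES buffer with MgCl2, DTT, BSA. Stopped near 50% ATP consumption; remaining ATP measured by luciferase luminescence.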

GSK3β = GSK3β (Homo sapiens, UniProt P49841); assay: GSK3β ATP depletion assay; format: biochemical; settings: read-out: GSK3b IC50
Chain of GSK3β (P49841 whole entry, species assumed): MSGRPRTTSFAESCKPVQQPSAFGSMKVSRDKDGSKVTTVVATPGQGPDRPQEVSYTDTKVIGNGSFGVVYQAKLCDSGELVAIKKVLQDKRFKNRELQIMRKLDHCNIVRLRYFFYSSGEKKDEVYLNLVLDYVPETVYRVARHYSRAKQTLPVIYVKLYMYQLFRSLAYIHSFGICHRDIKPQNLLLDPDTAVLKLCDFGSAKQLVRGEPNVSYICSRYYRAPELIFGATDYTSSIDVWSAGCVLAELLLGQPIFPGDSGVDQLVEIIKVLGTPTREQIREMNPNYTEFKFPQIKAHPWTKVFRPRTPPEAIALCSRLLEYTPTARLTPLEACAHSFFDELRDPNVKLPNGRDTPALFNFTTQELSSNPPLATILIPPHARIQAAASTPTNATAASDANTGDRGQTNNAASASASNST
Method in brief: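 Kinase activity is read as ATP consumption: luciferase luminescence reports the ATP remaining once roughly half of the 2 μM ATP is used. Reaction mix: 5 nM GSK3β, 10 μM b-CREB peptide, 50 mM Tris pH 7.5, 15 mM MgCl2, 1 mM DTT, 0.1% BSA, 2.5% DMSO. Enzyme and peptide are preincubated 15 min before ATP is added.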

PIM3 = PIM3 (Homo sapiens, UniProt Q86V86); assay: KinaseGlo Pim3 ATP depletion assay; format: biochemical
Method in brief: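 Residual ATP was detected by luciferase luminescence once about half had been consumed. The reaction contained 5 nM enzyme, 100 μM BAD peptide (RSRHSSYPAGT) and 40 μM ATP in 50 mM HEPES pH 7.5, 5 mM MgCl2, 1 mM DTT and 0.05% BSA with 2.5% DMSO. Compound and enzyme/peptide were premixed 15 min before ATP.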

[1] = tested on: KMS11 (human myeloma cell line); assay: Cell proliferation assay (CellTiter-Glo), KMS11; format: cell-based; settings: KMS11-Luc cells
Method in brief: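 EC50 derived from CellTiter-Glo luminescence after 3-day exposure at 37° C. Compound was diluted to 2× in medium and added to an equal volume of cells. KMS11 myeloma cells were plated on assay day at 2000/well in IMDM with 10% FBS and sodium pyruvate.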

Chain of PIM1 (P11309 whole entry): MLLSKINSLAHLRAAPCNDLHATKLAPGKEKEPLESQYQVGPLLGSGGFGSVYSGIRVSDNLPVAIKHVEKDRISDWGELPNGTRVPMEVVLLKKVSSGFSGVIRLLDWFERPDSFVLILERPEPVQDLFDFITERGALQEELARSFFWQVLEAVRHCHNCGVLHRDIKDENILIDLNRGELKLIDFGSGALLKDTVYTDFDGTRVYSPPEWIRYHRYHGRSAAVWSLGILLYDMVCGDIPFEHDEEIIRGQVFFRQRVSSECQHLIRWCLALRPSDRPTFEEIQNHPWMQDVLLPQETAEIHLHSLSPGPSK

SMILES	IC50 (PIM1) [nM]	IC50 (PIM2) [nM]	IC50 (GSK3β) [nM]	IC50 (PIM3) [nM]	EC50 ([1]; Homo sapiens, KMS-11) [nM]	EC50 [1] [nM]
Nc1cnc(-c2c(F)cccc2F)nc1C(=O)Nc1cnccc1C1=C[C@@H](O)[C@H](O)[C@@H](CCl)O1 [Example 14, 5-amino-N-(4-((2S,3S,4R)-2-(chloromethyl)-3,4-dihydroxy-3,4-dihydro-2H-pyran-6-yl)pyridin-3-yl)-2-(2,6-difluorophenyl)pyrimidine-4-carboxamide]	1	2	70	3	2630	–
C[C@H]1[C@H](O)C[C@H](c2ccncc2NC(=O)c2ccc(F)c(-c3c(F)cccc3F)n2)O[C@@H]1C (stereo in doubt) [Example 97, 6-(2,6-difluorophenyl)-5-fluoro-N-(4-((2R,4R,5S,6R)-4-hydroxy-5,6-dimethyltetrahydro-2H-pyran-2-yl)pyridin-3-yl)picolinamide]	5	263	313	37	> 10000	–
O=C(Nc1cnccc1C1=C[C@@H](O)[C@H](O)[C@@H](CCl)O1)c1ccnc(-c2c(F)cccc2F)n1 [Example 28, N-(4-((2S,3S,4R)-2-(chloromethyl)-3,4-dihydroxy-3,4-dihydro-2H-pyran-6-yl)pyridin-3-yl)-2-(2,6-difluorophenyl)pyrimidine-4-carboxamide]	2	7	22	3	808	–
C=C[C@H]1OC(c2ccncc2NC(=O)c2ccc(F)c(-c3c(F)cccc3F)n2)=C[C@@H](O)[C@@H]1O [Example 44, 6-(2,6-difluorophenyl)-N-(4-((2R,3S,4R)-3,4-dihydroxy-2-vinyl-3,4-dihydro-2H-pyran-6-yl)pyridin-3-yl)-5-fluoropicolinamide]	1	1	339	1	900	–
O=C(Nc1cnccc1[C@@H]1C[C@@H](O)[C@H](O)[C@@H](CO)O1)c1ccc(F)c(-c2c(F)cccc2F)n1 [Example 78, 6-(2,6-difluorophenyl)-N-(4-((2S,4R,5S,6R)-4,5-dihydroxy-6-(hydroxymethyl)tetrahydro-2H-pyran-2-yl)pyridin-3-yl)-5-fluoropicolinamide]	127	2520	5820	151	1500	–
N#Cc1ccc(F)c(-c2nc(C(=O)Nc3cnccc3[C@H]3C[C@@H](O)[C@H](O)[C@@H](CCl)O3)ccc2F)c1F [Example 1, N-(4-((2R,4R,5S,6S)-6-(chloromethyl)-4,5-dihydroxytetrahydro-2H-pyran-2-yl)pyridin-3-yl)-6-(3-cyano-2,6-difluorophenyl)-5-fluoropicolinamide]	17	5	33	3.2	9350	–
O=C(Nc1cnccc1[C@@H]1C[C@H](O)[C@]2(O)CCC[C@@H]2O1)c1ccc(F)c(-c2c(F)cccc2F)n1 [Example 188, 6-(2,6-difluorophenyl)-N-(4-((2S,4S,4aR,7aS)-4,4a-dihydroxyoctahydrocyclopenta[b]pyran-2-yl)pyridin-3-yl)-5-fluoropicolinamide]	34.5	318	731	144	> 10000	–
CC[C@H]1O[C@@H](c2ccncc2NC(=O)c2ccc(F)c(-c3c(F)cccc3F)n2)C[C@@H](O)[C@H]1C#N [Example 200, N-(4-((2R,4R,5R,6R)-5-cyano-6-ethyl-4-hydroxytetrahydro-2H-pyran-2-yl)pyridin-3-yl)-6-(2,6-difluorophenyl)-5-fluoropicolinamide]	7.8	46.7	1200	33.9	> 10000	–
O=C1CC[C@H]2O[C@@H](c3ccncc3NC(=O)c3ccc(F)c(-c4c(F)cccc4F)n3)C[C@@H](O)[C@H]2N1 [Example 198, 6-(2,6-difluorophenyl)-5-fluoro-N-(4-((2R,4R,4aR,8aR)-4-hydroxy-6-oxooctahydro-2H-pyrano[3,2-b]pyridin-2-yl)pyridin-3-yl)picolinamide]	2.6	53.6	24	19.2	> 10000	–
CC[C@H]1O[C@@H](c2ncncc2NC(=O)c2ccc(F)c(-c3c(F)cccc3F)n2)C[C@@H](O)[C@@H]1O [Example 162, 6-(2,6-difluorophenyl)-N-(4-((2R,4R,5S,6R)-6-ethyl-4,5-dihydroxytetrahydro-2H-pyran-2-yl)pyrimidin-5-yl)-5-fluoropicolinamide]	216	818	13500	178	> 10000	–
O=C(Nc1cnccc1[C@@H]1C[C@H](O)[C@]2(O)CCC[C@@H]2O1)c1c[nH]cc(-c2ccccc2)c1=O [Example 184, N-(4-((2S,4S,4aR,7aS)-4,4a-dihydroxyoctahydrocyclopenta[b]pyran-2-yl)pyridin-3-yl)-4-oxo-5-phenyl-1,4-dihydropyridine-3-carboxamide]	> 25000	> 25000	> 25000	> 25000	> 10000	–

Other lines, results leading:

IC50 (PIM1) [nM]	IC50 (PIM2) [nM]	IC50 (GSK3β) [nM]	IC50 (PIM3) [nM]	EC50 ([1]; Homo sapiens, KMS-11) [nM]	EC50 [1] [nM]	SMILES
50	756	4890	236	6400	–	CC[C@]1(O)[C@H](O)C[C@H](c2ccncc2NC(=O)c2ccc(F)c(-c3c(F)cccc3F)n2)O[C@@H]1C (stereo in doubt) [Example 77, 6-(2,6-difluorophenyl)-N-(4-((2R,4R,5S,6R)-5-ethyl-4,5-dihydroxy-6-methyltetrahydro-2H-pyran-2-yl)pyridin-3-yl)-5-fluoropicolinamide]
2	20	196	4	5900	–	C[C@@H]1O[C@H](c2ccncc2NC(=O)c2ccc(F)c(-c3c(F)cccc3F)n2)C[C@@H](O)[C@H]1O [Example 107, 6-(2,6-difluorophenyl)-N-(4-((2S,4R,5R,6S)-4,5-dihydroxy-6-methyltetrahydro-2H-pyran-2-yl)pyridin-3-yl)-5-fluoropicolinamide]
23.6	26.7	235	13.5	–	> 10000	N#CC[C@H]1O[C@@H](c2ccncc2NC(=O)c2nc(-c3c(F)cccc3F)ncc2N)C[C@@H](O)[C@@H]1O [Example 153, 5-amino-N-(4-((2R,4R,5S,6R)-6-(cyanomethyl)-4,5-dihydroxytetrahydro-2H-pyran-2-yl)pyridin-3-yl)-2-(2,6-difluorophenyl)pyrimidine-4-carboxamide]
0.7	1.4	718	1.8	718	–	C[C@H]1OC(c2ccncc2NC(=O)c2nc(-c3c(F)cccc3F)ncc2N)=C[C@@H](O)[C@]1(C)O [Example 11, 5-amino-2-(2,6-difluorophenyl)-N-(4-((2R,3S,4R)-3,4-dihydroxy-2,3-dimethyl-3,4-dihydro-2H-pyran-6-yl)pyridin-3-yl)pyrimidine-4-carboxamide]
4	46.3	374	5.3	4920	–	CC[C@]1(O)[C@H](O)C[C@H](c2ccncc2NC(=O)c2nc(-c3ncccc3F)ccc2N)O[C@@H]1C [Example 155, 5-amino-N-(4-((2R,4R,5S,6R)-5-ethyl-4,5-dihydroxy-6-methyltetrahydro-2H-pyran-2-yl)pyridin-3-yl)-3′-fluoro-2,2′-bipyridine-6-carboxamide]
3	47	171	13	7100	–	CC1(C)O[C@H](c2ccncc2NC(=O)c2ccc(F)c(-c3c(F)cccc3F)n2)C[C@@H](O)[C@H]1O [Example 91, 6-(2,6-difluorophenyl)-N-(4-((2S,4R,5R)-4,5-dihydroxy-6,6-dimethyltetrahydro-2H-pyran-2-yl)pyridin-3-yl)-5-fluoropicolinamide]
8	34.6	7.9	8.1	9630	–	CC[C@]1(O)[C@H](O)C[C@H](c2ccncc2NC(=O)c2nc(-c3ccncc3F)ccc2N)O[C@@H]1C [Example 157, 5-amino-N-(4-((2R,4R,5S,6R)-5-ethyl-4,5-dihydroxy-6-methyltetrahydro-2H-pyran-2-yl)pyridin-3-yl)-3′-fluoro-2,4′-bipyridine-6-carboxamide]
